Data taken from the NIST ThermoML archive (doi:10.1016/j.jct.2018.07.013).

Key:
[1] = xn = mol fraction of the nth substance listed; settings: 298.15 K, 100 kPa, Liquid; for speed of sound: Frequency=3 MHz, Single path-length method; for mass density: Vibrating tube method
[2] = 298.15 K, 100 kPa, Liquid
[3] = excess molar enthalpy (molar enthalpy of mixing); xn = mol fraction of the nth substance listed; settings: 298.15 K, 100 kPa, Liquid, Power-compensation calorimetry

CO [methanol] + COC(=O)C(C)O
[1], x2 = 0
Settings | mass density [kg/m3] | speed of sound [m/s]
– | 786.53 | 1104

CCO [ethanol]
Settings | speed of sound [m/s]
[2], Frequency=3 MHz, Single path-length method | 1143.2

Settings | mass density [kg/m3]
[2], Vibrating tube method | 785.16

CCOC(=O)C(C)O (stereo not drawn) [DL-ethyl lactate] + CCCO
Settings | excess molar enthalpy, [3] [kcal/mol] | mass density, [1] [kg/m3] | speed of sound, [1] [m/s]
x1 = 0.025 | 0.0229 | – | –
x1 = 0.0489 | – | 816.57 | 1211.1
x1 = 0.054 | 0.0473 | – | –
x1 = 0.1025 | – | 834.15 | 1216.4
x1 = 0.117 | 0.0815 | – | –
x1 = 0.2027 | – | 864.58 | 1225.8
x1 = 0.216 | 0.109 | – | –
x1 = 0.3036 | – | 892.35 | 1235.2
x1 = 0.309 | 0.12 | – | –
x1 = 0.3973 | – | 915.89 | 1242.5
x1 = 0.404 | 0.121 | – | –
x1 = 0.4963 | – | 938.64 | 1250.2
x1 = 0.517 | 0.115 | – | –
x1 = 0.6012 | – | 960.68 | 1257.8
x1 = 0.612 | 0.101 | – | –
x1 = 0.6951 | – | 978.76 | 1263.9
x1 = 0.712 | 0.0765 | – | –
x1 = 0.8061 | – | 998.37 | 1270.4
x1 = 0.814 | 0.0459 | – | –
x1 = 0.905 | 0.021 | – | –
x1 = 0.9076 | – | 1014.74 | 1275.6
x1 = 0.9482 | – | 1020.9 | 1277.3
x1 = 1 | – | 1028.45 | 1279.3

CCOC(=O)C(C)O (stereo not drawn) [DL-ethyl lactate] + CCO
Settings | excess molar enthalpy, [3] [kcal/mol] | mass density, [1] [kg/m3] | speed of sound, [1] [m/s]
x1 = 0.0522 | – | 809.88 | 1158.1
x1 = 0.054 | 0.0177 | – | –
x1 = 0.0957 | – | 828.74 | 1169.7
x1 = 0.114 | 0.0337 | – | –
x1 = 0.1946 | – | 866.53 | 1192.8
x1 = 0.225 | 0.0502 | – | –
x1 = 0.2902 | – | 897.43 | 1211.3
x1 = 0.312 | 0.0554 | – | –
x1 = 0.4011 | – | 927.58 | 1229.3
x1 = 0.42 | 0.0574 | – | –
x1 = 0.4995 | – | 950.3 | 1240.8
x1 = 0.511 | 0.0538 | – | –
x1 = 0.6076 | – | 971.75 | 1252.8
x1 = 0.635 | 0.0457 | – | –
x1 = 0.6931 | – | 986.54 | 1261.4
x1 = 0.737 | 0.0349 | – | –
x1 = 0.7965 | – | 1002.43 | 1268.7
x1 = 0.829 | 0.0217 | – | –
x1 = 0.9047 | – | 1017.03 | 1275.2
x1 = 0.93 | 0.0097 | – | –
x1 = 0.9511 | – | 1022.75 | 1277.3
x1 = 0.96 | 0.00478 | – | –
x1 = 1 | – | 1028.45 | 1279.3
